pIC50: −log10 of the molar value.
Experiments:
Type in all cases: cell-based
KB = test: In vitro potency of tomaymycin derivatives, WST-8 surviving fraction, KB; details: Homo sapiens, 96 h; KB cells, incubated 4 days at 37° C., WST-8 read at 450 nm
Description: (§1) Samples of free tomaymycin derivative or tomaymycin derivative conjugate are added to a 96-well flat bottomed tissue culture plate and titrated using serial dilutions ranging from 1×10^−12 M to 3×10^−7 M. Antigen positive tumor cells or antigen negative tumor cells are added to the wells in such a way that there are triplicate samples for each drug concentration for each cell line. The plates are incubated at 37° C. in an atmosphere of 5% CO2 for 4 days.
(§2) At the end of the incubation period, 20 μl of the tetrazolium reagent WST-8 (2-(2-methoxy-nitrophenyl)-3-(4-nitrophenyl)-5-(2,4-disulfophenyl)-2-tetrazolium, monosodium salt) is added to each well, and the plates are returned to the incubator for 2 hours. The absorbance in each well of the plates is then measured using the Molecular Devices plate reader at 450 nm. Surviving fraction of cells at each concentration of tomaymycin derivative or conjugate are plotted.

MCF7 = test: In vitro potency of tomaymycin derivatives, WST-8 surviving fraction, MCF7; details: Homo sapiens, 96 h; MCF7 cells, incubated 4 days at 37° C., WST-8 read at 450 nm
Description: as §1, §2

A549 = test: In vitro potency of tomaymycin derivatives, WST-8 surviving fraction, A549; details: Homo sapiens, 96 h; A549 cells, incubated 4 days at 37° C., WST-8 read at 450 nm
Description: as §1, §2

Row | Compound | pIC50 (KB) | pIC50 (MCF7) | pIC50 (A549)
1 | C/C=C1\C[C@H]2C=Nc3cc(OCCC(C)CCOc4cc5c(cc4OC)C(=O)N4C/C(=C/C)C[C@H]4C=N5)c(OC)cc3C(=O)N2C1 [Example 5, 8,8′-[3-methyl-1,5-pentanediylbis(oxy)]-bis[(S)-2-eth-(E)-ylidene-7-methoxy-1,2,3,11a-tetrahydro-5H-pyrrolo[2,1-c][1,4]benzodiazepin-5-one]] | 10.00 | 10.00 | 10.15
2 | C/C=C1\C[C@H]2C=Nc3cc(OCc4cc(COc5cc6c(cc5OC)C(=O)N5C/C(=C/C)C[C@H]5C=N6)cc(OC)c4)c(OC)cc3C(=O)N2C1 [Example 2, 8,8′-[5-methoxy-1,3-benzenediylbis(methylenoxy)]-bis[(S)-2-eth-(E)-ylidene-7-methoxy-1,2,3,11a-tetrahydro-5H-pyrrolo[2,1-c][1,4]benzodiazepin-5-one]] | > 12.00 | > 12.00 | > 12.00
3 | C/C=C1\C[C@H]2C=Nc3cc(OCc4cccc(COc5cc6c(cc5OC)C(=O)N5C/C(=C/C)C[C@H]5C=N6)c4)c(OC)cc3C(=O)N2C1 [Example 1, 8,8′-[1,3-benzenediylbis(methylenoxy)]-bis[(S)-2-eth-(E)-ylidene-7-methoxy-1,2,3,11a-tetrahydro-5H-pyrrolo[2,1-c][1,4]benzodiazepin-5-one]] | > 12.00 | > 12.00 | > 12.00

From US8163736B2, “Cytotoxic agents comprising new tomaymycin derivatives” (sanofi-aventis, priority 2006, dated 2012)
